Where a SMILES comes first, the peptide text is derived from it. Bridges are numbered along the chain shown (N, C = ends). [ ]: non-standard residue; d: D form. The star is where a group is joined. ξ: configuration not given here. Phe(4-COOH) = N[C@@H](Cc1ccc(C(=O)O)cc1)C(=O)O; Bip = N[C@@H](Cc1ccc(-c2ccccc2)cc1)C(=O)O; 4Pal = N[C@@H](Cc1ccncc1)C(=O)O; Aad = N[C@@H](CCCC(=O)O)C(=O)O; Cha = N[C@@H](CC1CCCCC1)C(=O)O; Cit = NC(=O)NCCC[C@H](N)C(=O)O; Ile(3ξ) = CCC(C)[C@H](N)C(=O)O; Thr(3ξ) = CC(O)[C@H](N)C(=O)O; 12Ado = NCCCCCCCCCCCC(=O)O; Carboxymethyl = O=C(O)C*; NMeA = CN[C@@H](C)C(=O)O; Orn = NCCC[C@H](N)C(=O)O; Aun = NCCCCCCCCCCC(=O)O; Dab = NCC[C@H](N)C(=O)O; Dap = NC[C@H](N)C(=O)O; AEEA = NCCOCCOCC(=O)O

The target of the assay is T1, PD-1/PD-L1 interaction (PE-labeled human PD-L1-Ig binding to Jurkat cell line over-expressing human PD-1) (Homo sapiens, UniProt Q15116).
T1 construct: expressed in transfected cells; host or cells: Jurkat
T1 sequence (Q15116 25-288): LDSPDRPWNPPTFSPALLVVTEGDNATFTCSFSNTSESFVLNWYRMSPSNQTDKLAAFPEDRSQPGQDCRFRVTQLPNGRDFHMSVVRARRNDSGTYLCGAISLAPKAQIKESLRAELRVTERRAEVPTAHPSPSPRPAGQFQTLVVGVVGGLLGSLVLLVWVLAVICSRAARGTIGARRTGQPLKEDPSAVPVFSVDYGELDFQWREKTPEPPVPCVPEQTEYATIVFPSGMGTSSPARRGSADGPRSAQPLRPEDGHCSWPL
The assay can be described thus: Jurkat-PD-1 Cell Binding High-Content Screening Assay (CBA). Conditions: Jurkat-hPD-1 cells, PE-labeled PD-L1-Ig 20 nM final; read-out: Jurkat HPD1 PDL1 IC50. A digest of the protocol: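 High-content imaging read-out of PE-PD-L1-Ig binding (20 nM final, 1 h) to Jurkat-hPD-1 cells, after 2 h compound exposure at 37 °C in DMEM with 10% FCS. Nuclei counterstained with Hoechst 33342 after paraformaldehyde fixation.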
With `CCC(C)[C@@H]1NC(=O)[C@H](Cc2ccc(-c3ccccc3)cc2)NC(=O)[C@H](C(C)C)NC(=O)[C@H](Cc2c[nH]c3ccccc23)NC(=O)[C@H](CC(=O)O)NC(=O)[C@H](Cc2ccc(C(=O)O)cc2)NC(=O)[C@H](Cc2ccc(OCC(=O)O)cc2)NC(=O)CSC[C@@H](C(=O)N[C@@H](CCCN)C(=O)NCCOCCOCC(=O)NCCCCCCCCCCC(=O)O)NC(=O)[C@H](C(C)O)NC(=O)[C@H](C(C)C)NC(=O)[C@H](CC2CCCCC2)NC(=O)[C@H](CCN)NC(=O)[C@@H](CC(C)C)NC(=O)[C@H](C)N(C)C1=O` (stereo partly drawn) [Example 2149] ({CH2CO}-Y(Carboxymethyl)[Phe(4-COOH)]DWV[Bip][Ile(3ξ)][NMeA][dL][Dab][Cha]V[Thr(3ξ)]C[Orn][AEEA][Aun]-OH; thioether N-14), the half-inhibitory concentration (IC50) (usually the midpoint of a concentration-inhibition curve) was 17.7 nM.

For the molecule `CC(C)C[C@@H]1NC(=O)[C@H](Cc2c[nH]c3ccccc23)NC(=O)[C@H](CC(=O)O)NC(=O)[C@H](Cc2ccc(C(=O)O)cc2)NC(=O)[C@H](Cc2ccc(OCC(=O)O)cc2)NC(=O)CSC[C@@H](C(=O)N[C@@H](CCCN)C(=O)NCCOCCOCC(=O)NCCCCCCCCCCC(=O)O)NC(=O)[C@H](CCN)NC(=O)[C@H](C(C)C)NC(=O)[C@H](CC2CCCCC2)NC(=O)[C@H](CCN)NC(=O)[C@@H](CC(C)C)NC(=O)[C@H](C)N(C)C(=O)[C@H](C(C)C)NC(=O)[C@H](Cc2ccc(-c3ccccc3)cc2)NC1=O` [Example 2150] ({CH2CO}-Y(Carboxymethyl)[Phe(4-COOH)]DWL[Bip]V[NMeA][dL][Dab][Cha]V[Dab]C[Orn][AEEA][Aun]-OH; thioether N-14), the IC50 worked out at 14.1 nM.

Take `CC(C)C[C@@H]1NC(=O)[C@H](Cc2c[nH]c3ccccc23)NC(=O)[C@H](CC(=O)O)NC(=O)[C@H](Cc2ccc(C(=O)O)cc2)NC(=O)[C@H](Cc2ccc(OCC(=O)O)cc2)NC(=O)CSC[C@@H](C(=O)N[C@@H](CCCN)C(=O)NCCOCCOCC(=O)NCCCCCCCCCCC(=O)O)NC(=O)[C@H](CCCCN)NC(=O)[C@H](C(C)C)NC(=O)[C@H](CC2CCCCC2)NC(=O)[C@H](CCN)NC(=O)[C@@H](CC(C)C)NC(=O)[C@H](C)N(C)C(=O)[C@H](C(C)C)NC(=O)[C@H](Cc2ccc(-c3ccccc3)cc2)NC1=O` [Example 2151] ({CH2CO}-Y(Carboxymethyl)[Phe(4-COOH)]DWL[Bip]V[NMeA][dL][Dab][Cha]VKC[Orn][AEEA][Aun]-OH; thioether N-14): the IC50 was determined as 8.5 nM.

Take `CC(C)C[C@@H]1NC(=O)[C@H](Cc2c[nH]c3ccccc23)NC(=O)[C@H](CC(=O)O)NC(=O)[C@H](Cc2ccc(C(=O)O)cc2)NC(=O)[C@H](Cc2ccc(OCC(=O)O)cc2)NC(=O)CSC[C@@H](C(=O)N[C@@H](CCCN)C(=O)NCCOCCOCC(=O)NCCCCCCCCCCC(=O)O)NC(=O)[C@H](CCCCN)NC(=O)[C@H](C(C)C)NC(=O)[C@H](CC2CCCCC2)NC(=O)[C@H](CCCC(=O)O)NC(=O)[C@@H](CC(C)C)NC(=O)[C@H](C)N(C)C(=O)[C@H](C(C)C)NC(=O)[C@H](Cc2ccc(-c3ccccc3)cc2)NC1=O` [Example 2152] ({CH2CO}-Y(Carboxymethyl)[Phe(4-COOH)]DWL[Bip]V[NMeA][dL][Aad][Cha]VKC[Orn][AEEA][Aun]-OH; thioether N-14): the IC50 is 19.9 nM.

In the case of `CC(C)C[C@@H]1NC(=O)[C@H](Cc2c[nH]c3ccccc23)NC(=O)[C@H](CC(=O)O)NC(=O)[C@H](Cc2ccc(C(=O)O)cc2)NC(=O)[C@H](Cc2ccc(OCC(=O)O)cc2)NC(=O)CSC[C@@H](C(=O)N[C@@H](CCCN)C(=O)NCCOCCOCC(=O)NCCCCCCCCCCC(=O)O)NC(=O)[C@H](CCCC(=O)O)NC(=O)[C@H](C(C)C)NC(=O)[C@H](CC2CCCCC2)NC(=O)[C@H](CCN)NC(=O)[C@@H](CC(C)C)NC(=O)[C@H](C)N(C)C(=O)[C@H](C(C)C)NC(=O)[C@H](Cc2ccc(-c3ccccc3)cc2)NC1=O` [Example 2153] ({CH2CO}-Y(Carboxymethyl)[Phe(4-COOH)]DWL[Bip]V[NMeA][dL][Dab][Cha]V[Aad]C[Orn][AEEA][Aun]-OH; thioether N-14), the IC50 was determined as 16.7 nM.

For the molecule `CC(C)C[C@@H]1NC(=O)[C@H](Cc2c[nH]c3ccccc23)NC(=O)[C@H](CC(=O)O)NC(=O)[C@H](Cc2ccc(OCC(=O)O)cc2)NC(=O)[C@H](Cc2ccc(OCC(=O)O)cc2)NC(=O)CSC[C@@H](C(=O)N[C@@H](CCCCN)C(=O)NCCOCCOCC(=O)NCCCCCCCCCCC(=O)O)NC(=O)[C@H](CN)NC(=O)[C@H](C(C)C)NC(=O)[C@H](CC2CCCCC2)NC(=O)[C@H](CCN)NC(=O)[C@@H](CC(C)C)NC(=O)[C@H](C)N(C)C(=O)[C@H](C(C)C)NC(=O)[C@H](Cc2ccc(-c3ccccc3)cc2)NC1=O` [Example 2154] ({CH2CO}-Y(Carboxymethyl)Y(Carboxymethyl)DWL[Bip]V[NMeA][dL][Dab][Cha]V[Dap]CK[AEEA][Aun]-OH; thioether N-14), the IC50 is 11 nM.

As to `CC(C)C[C@@H]1NC(=O)[C@H](Cc2c[nH]c3ccccc23)NC(=O)[C@H](CC(=O)O)NC(=O)[C@H](Cc2ccc(C(=O)O)cc2)NC(=O)[C@H](Cc2ccc(OCC(=O)O)cc2)NC(=O)CSC[C@@H](C(=O)NCCOCCOCC(=O)N[C@@H](CCN)C(=O)NCCCCCCCCCCC(=O)O)NC(=O)[C@H](CCCCN)NC(=O)[C@H](C(C)C)NC(=O)[C@H](CC2CCCCC2)NC(=O)[C@H](CCN)NC(=O)[C@@H](CC(C)C)NC(=O)[C@H](C)N(C)C(=O)[C@H](C(C)C)NC(=O)[C@H](Cc2ccc(-c3ccccc3)cc2)NC1=O` [Example 2155] ({CH2CO}-Y(Carboxymethyl)[Phe(4-COOH)]DWL[Bip]V[NMeA][dL][Dab][Cha]VKC[AEEA][Dab][Aun]-OH; thioether N-14), the IC50 amounted to 6.6 nM.

Take `CC(C)C[C@@H]1NC(=O)[C@H](Cc2c[nH]c3ccccc23)NC(=O)[C@H](CC(=O)O)NC(=O)[C@H](Cc2ccc(C(=O)O)cc2)NC(=O)[C@H](Cc2ccc(OCC(=O)O)cc2)NC(=O)CSC[C@@H](C(=O)NCCOCCOCC(=O)N[C@@H](CCN)C(=O)NCCCCCCCCCCC(=O)O)NC(=O)[C@H](CCCNC(N)=O)NC(=O)[C@H](C(C)C)NC(=O)[C@H](CC2CCCCC2)NC(=O)[C@H](CCN)NC(=O)[C@@H](CC(C)C)NC(=O)[C@H](C)N(C)C(=O)[C@H](C(C)C)NC(=O)[C@H](Cc2ccc(-c3ccccc3)cc2)NC1=O` [Example 2156] ({CH2CO}-Y(Carboxymethyl)[Phe(4-COOH)]DWL[Bip]V[NMeA][dL][Dab][Cha]V[Cit]C[AEEA][Dab][Aun]-OH; thioether N-14): the IC50 amounted to 16.5 nM.

As for `CC(C)C[C@@H]1NC(=O)[C@H](Cc2c[nH]c3ccccc23)NC(=O)[C@H](CC(=O)O)NC(=O)[C@H](Cc2ccc(OCC(=O)O)cc2)NC(=O)[C@H](Cc2ccc(OCC(=O)O)cc2)NC(=O)CSC[C@@H](C(=O)N[C@@H](CCCCN)C(=O)NCCCCCCCCCCC(=O)O)NC(=O)[C@H](CCCN)NC(=O)[C@H](C(C)C)NC(=O)[C@H](CC2CCCCC2)NC(=O)[C@H](CCN)NC(=O)[C@@H](CC(C)C)NC(=O)[C@H](C)N(C)C(=O)[C@H](C(C)C)NC(=O)[C@H](Cc2ccc(-c3ccccc3)cc2)NC1=O` [Example 2157] ({CH2CO}-Y(Carboxymethyl)Y(Carboxymethyl)DWL[Bip]V[NMeA][dL][Dab][Cha]V[Orn]CK[Aun]-OH; thioether N-14), the half-inhibitory concentration (IC50) was found to be 21 nM.

With `CC(C)C[C@@H]1NC(=O)[C@H](Cc2c[nH]c3ccccc23)NC(=O)[C@H](CC(=O)O)NC(=O)[C@H](Cc2ccc(OCC(=O)O)cc2)NC(=O)[C@H](Cc2ccc(OCC(=O)O)cc2)NC(=O)CSC[C@@H](C(=O)NCCOCCOCC(=O)N[C@@H](CCN)C(=O)NCCCCCCCCCCC(=O)O)NC(=O)[C@H](CCCN)NC(=O)[C@H](C(C)C)NC(=O)[C@H](CC2CCCCC2)NC(=O)[C@H](CCN)NC(=O)[C@@H](CC(C)C)NC(=O)[C@H](C)N(C)C(=O)[C@H](C(C)C)NC(=O)[C@H](Cc2ccc(-c3ccccc3)cc2)NC1=O` [Example 2158] ({CH2CO}-Y(Carboxymethyl)Y(Carboxymethyl)DWL[Bip]V[NMeA][dL][Dab][Cha]V[Orn]C[AEEA][Dab][Aun]-OH; thioether N-14), the IC50 was determined as 20 nM.

As to `CC(C)C[C@@H]1NC(=O)[C@H](Cc2c[nH]c3ccccc23)NC(=O)[C@H](CC(=O)O)NC(=O)[C@H](Cc2ccc(C(=O)O)cc2)NC(=O)[C@H](Cc2ccc(OCC(=O)O)cc2)NC(=O)CSC[C@@H](C(=O)N[C@@H](CCCCN)C(=O)NCCCCCCCCCCC(=O)O)NC(=O)[C@H](CCCN)NC(=O)[C@H](C(C)C)NC(=O)[C@H](CC2CCCCC2)NC(=O)[C@H](CCN)NC(=O)[C@@H](CC(C)C)NC(=O)[C@H](C)N(C)C(=O)[C@H](C(C)C)NC(=O)[C@H](Cc2ccc(-c3ccccc3)cc2)NC1=O` [Example 2159] ({CH2CO}-Y(Carboxymethyl)[Phe(4-COOH)]DWL[Bip]V[NMeA][dL][Dab][Cha]V[Orn]CK[Aun]-OH; thioether N-14), the IC50 came to 17.8 nM.

On to `CC(C)C[C@H]1NC(=O)[C@H](C)N(C)C(=O)[C@H](C(C)C)NC(=O)[C@H](Cc2ccc(-c3ccccc3)cc2)NC(=O)[C@H](C(C)C)NC(=O)[C@H](Cc2c[nH]c3ccccc23)NC(=O)[C@H](CC(=O)O)NC(=O)[C@H](Cc2ccc(OCC(=O)O)cc2)NC(=O)[C@H](CCCNC(=N)N)NC(=O)CSC[C@@H](C(=O)NCC(=O)NCCOCCOCC(=O)N[C@@H](CCCN)C(=O)NCCCCCCCCCCCC(=O)O)NC(=O)[C@H](CCCN)NC(=O)[C@H](C(C)C)NC(=O)[C@H](CC2CCCCC2)NC(=O)[C@H](CCN)NC1=O` [Example 2160] ({CH2CO}-RY(Carboxymethyl)DWV[Bip]V[NMeA][dL][Dab][Cha]V[Orn]CG[AEEA][Orn][12Ado]-OH; thioether N-14), for which the 50% inhibitory concentration (IC50) came to 12.2 nM.

Turning to `CC(C)C[C@@H]1NC(=O)[C@H](Cc2c[nH]c3ccccc23)NC(=O)[C@H](CC(=O)O)NC(=O)[C@H](Cc2ccc(O)cc2)NC(=O)[C@H](Cc2ccncc2)NC(=O)CSC[C@@H](C(=O)N[C@@H](CCCN)C(=O)NCCOCCOCC(=O)NCCCCCCCCCCC(=O)O)NC(=O)[C@H](CCCN)NC(=O)[C@H](C(C)C)NC(=O)[C@H](CC2CCCCC2)NC(=O)[C@H](CCN)NC(=O)[C@@H](CC(C)C)NC(=O)[C@H](C)N(C)C(=O)[C@H](C(C)C)NC(=O)[C@H](Cc2ccc(-c3ccccc3)cc2)NC1=O` [Example 2161] ({CH2CO}-[4Pal]YDWL[Bip]V[NMeA][dL][Dab][Cha]V[Orn]C[Orn][AEEA][Aun]-OH; thioether N-14), the 50% inhibitory concentration (IC50) stood at 122 nM.

(Values after patent publication US20260070945A1, “MACROCYCLIC IMMUNOMODULATORS” (Bristol-Myers Squibb Company, priority 2022, published 2026).)
